Test results from patent publication US20240285627A1, “DRUG COMBINATION OF FAK INHIBITOR AND IMMUNOGENIC CELL DEATH INDUCER AND USE THEREOF” (INXMED (NANJING) CO., LTD., priority 2022, published 2024).
Where “and” joins values, the source holds several entries; their conditions need not be identical. Equal values may be shown once.

Legend:
[1] = tested on: Mouse colon cancer CT26 cells; experiment: CT26 cells with IN10018 and Lurbinectedin: microscope and flow cytometry for CRT / Annexin V (Example 2); assay type: cell-based; details: CT26, 48 hours; IN10018 5 μM, Lurbinectedin 0.00142 μM
Method: (§1) Mouse colon cancer CT26 cells (Insitute of Biochemistry and Cell Biology) were cultured with RPMI-1640 (Shanghai Basalmedia, classification number: L210KJ, batch number: F210916)+10% FBS (Gibco, classification number: 10099-141c, batch number: 2158737cp) and passaged twice. When the cells were in good condition, the culture solution was placed in a 24-well plate. After the cells were spread for 24 hours, four groups were set up, wherein the first group was a control group, and the culture medium was added; the second group was IN10018 with a concentration of 5 μM; the third group was Lurbinectedin (DC chemicals, classification number: DC12502, batch number: DC1250203) with a concentration of 0.00142 μM; and the fourth group was IN10018 (5 μM) combined with Lurbinectedin (0.00142 μM). The drugs were mixed and the mixture was cultured in a 5% CO2 incubator at 37° C. for 48 hours.
(§2) After 48 hours of drug action, the cells were observed under a microscope and photographed, and the photos were kept. Then the cells were collected, subjected to flow analysis, and washed twice with flow buffer (PBS+2% FBS). 0.5 μl of AF647 anti-Calreticulin antibody (abcam, classification number: ab196159, batch number: CR33676773) was added to each well and fully mixed. […] The mixture was cultured at room temperature in the dark for 15 minutes, and then analyzed by flow cytometry.

[2] = tested on: Mouse colon cancer CT26 cells; experiment: CT26 cells with IN10018 and MRTX1133: microscope and flow cytometry for CRT / Annexin V (Example 4); assay type: cell-based; details: CT26, 48 hours; IN10018 5 μM, MRTX1133 6 μM
Method: as §1, with “MRTX1133 (SuperLan Chemical Co., Ltd.,” for “Lurbinectedin (DC chemicals,”, “P2621928-55-8,” for “DC12502,”, “131005)” for “DC1250203)”, “6” for “0.00142”, “MRTX1133 (6” for “Lurbinectedin (0.00142”
as §2

Mouse lung cancer KPL = experiment: KPL cells with IN10018 and MRTX1133: microscope and flow cytometry for CRT / Annexin V (Example 6); assay type: cell-based; details: 48 hours, IN10018 10 μM, MRTX1133 15 μM
Method: Mouse lung cancer KPL (Insitute of Biochemistry and Cell Biology) were cultured with RPMI-1640 (Shanghai Basalmedia, classification number: L210KJ, batch number: F210916)+10% FBS (Gibco, classification number: 10099-141c, batch number: 2158737cp) and passaged twice. When the cells were in good condition, the culture solution was placed in a 24-well plate. After the cells were spread for 24 hours, four groups were set up, wherein the first group was a control group, and the culture medium was added; the second group was IN10018 with a concentration of 10 μM; the third group was MRTX1133 (SuperLan Chemical Co., Ltd., classification number: P2621928-55-8, batch number: 131005) with a concentration of 15 μM; and the fourth group was IN10018 (10 μM) combined with MRTX1133 (15 μM). The drugs were mixed and the mixture was cultured in a 5% CO2 incubator at 37° C. for 48 hours.
as §2

[3] = Weight change, survival and clinical status in the CT26 allograft model (Example 9); assay type: in vivo
Method: The health status and death of animals was monitored every day. Routine examination included observing the effects of tumor growth and drug treatment on the daily behavior of animals, such as behavioral activities, food and water intake (visual observation only), body weight change, appearance signs or other abnormal conditions. Based on the number of animals in each group, the death number and side effects of animals in the group were recorded.
The assay was carried out according to the administration scheme. During the assay, animal activities such as eating and drinking were observed daily, and animal weight was recorded 2˜3 times a week. […] The body weight of the three-drug combined group of MRTX1133+IN10018+TIGIT (5+25+3 mg/kg) group changed from 19.5 g on the day of group administration (Day 0) to 21.2 g on the 16th day, and the change rate of body weight was […].

SMILES	cell state under a microscope [1]	cell state under a microscope [2]	cell state under a microscope (Mouse lung cancer KPL)	Weight on Day 0 ([3]; Day 0, at grouping, mean ± SD)	Weight change rate (%) ([3]; Day 16 vs Day 0)	Weight on Day 14/16 ([3]; administration groups: 16th day after group administration, mean ± SD)	Animal survival ([3]; number of animals alive on day 0/number alive on day 16)
COc1cc(C(=O)NC2CCN(C)CC2)c(F)cc1Nc1ncc(C(F)(F)F)c(Oc2cccc3c2C(=O)N(C)C3)n1 [IN10018]	good	good	good	–	–	–	–
C#Cc1c(F)ccc2cc(O)cc(-c3ncc4c(N5CC6CCC(C5)N6)nc(OC[C@@]56CCCN5C[C@H](F)C6)nc4c3F)c12 [MRTX1133]	–	poor	poor	19.4 g and 19.4 ± 0.8 g	15.1%	22.3 g and 22.3 ± 0.8 g	6/6
